# Test results published in patent US7396837B2, “Antitumoral analogs of lamellarins” (Pharma Mar, S.A.U., priority 2002, dated 2008).
# “Also recorded” adds a separate entry of the source.
# Tests used:
# human topoisomerase I = biological target: T1, human topoisomerase I (Homo sapiens, UniProt P11387); experiment: Topoisomerase I cleavage of radiolabeled 117-bp DNA fragment; assay type: biochemical
# T1 sequence (P11387 1-765): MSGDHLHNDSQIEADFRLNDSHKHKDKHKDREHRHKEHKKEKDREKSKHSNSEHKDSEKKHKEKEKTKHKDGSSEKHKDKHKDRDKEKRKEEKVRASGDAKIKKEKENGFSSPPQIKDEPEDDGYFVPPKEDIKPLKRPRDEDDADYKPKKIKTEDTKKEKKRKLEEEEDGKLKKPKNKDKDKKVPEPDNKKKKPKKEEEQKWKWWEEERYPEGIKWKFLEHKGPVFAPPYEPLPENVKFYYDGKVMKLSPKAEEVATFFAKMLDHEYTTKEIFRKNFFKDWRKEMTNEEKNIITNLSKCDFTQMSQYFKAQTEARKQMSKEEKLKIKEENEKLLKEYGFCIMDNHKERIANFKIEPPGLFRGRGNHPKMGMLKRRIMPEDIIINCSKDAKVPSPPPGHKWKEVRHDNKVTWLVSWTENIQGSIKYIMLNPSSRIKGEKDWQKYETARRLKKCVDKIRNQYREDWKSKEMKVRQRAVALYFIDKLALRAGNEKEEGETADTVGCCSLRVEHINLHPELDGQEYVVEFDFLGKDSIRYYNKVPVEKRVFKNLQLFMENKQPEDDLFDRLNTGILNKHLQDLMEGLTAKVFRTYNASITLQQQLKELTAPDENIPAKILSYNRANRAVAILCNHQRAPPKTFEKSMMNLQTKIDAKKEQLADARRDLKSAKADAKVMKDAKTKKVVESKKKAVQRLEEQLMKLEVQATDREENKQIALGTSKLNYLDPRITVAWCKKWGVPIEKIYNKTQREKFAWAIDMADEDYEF
# Source text: Two assays, based on DNA relaxation and DNA cleavage (Bailly, C. DNA relaxation and cleavage assays to study topoisomerase I inhibitors. Methods Enzymol. 2001, 340, 610-623) were used evaluate the effects of the lamellarin analogs on the catalytic activity of human topoisomerase I.
# A second assay, based on the cleavage of a radiolabeled DNA substrate by topoisomerase I, was used to confirm that the cationic lamellarin derivatives do effectively function as topoisomerase I poisons. A 117-bp DNA restriction fragment uniquely end-labeled at the 3′ end was subjected to cleavage by topoisomerase I in the presence of the different compounds and the resulting DNA cleavage products were resolved on sequencing-type polyacrylamide gels. The advantage of this assay is to detect the cleavage sites and to locate their positions with nucleotide resolution, providing thus information on the site selectivity of cleavage.
# fertilised sea urchin = fertilised sea urchin assay; cited from earlier work
# H-MEC-1 = experiment: SRB colorimetric cell growth inhibition assay, H-MEC-1; assay type: cell-based; settings: Homo sapiens, HMEC-1, H-MEC-1
# In short: (§1)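 Sulforhodamine B colorimetric assay of cell growth and viability, mean ± SD of triplicate wells. Parameters derived: GI (growth inhibition), TGI (total growth inhibition, cytostatic) and LC (cell killing, cytotoxic).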
# SKOV-3 = experiment: SRB colorimetric cell growth inhibition assay, SKOV-3; assay type: cell-based; settings: Homo sapiens
# In short: as §1
smiles,measurement,setting,value
"COc1cc(-c2c3c4cc(OC)c(O)cc4oc(=O)c3n3ccc4cc(O)c(OC)cc4c23)ccc1O [Compound 3, lamellarin D, reference compound]",topoisomerase I-mediated DNA cleavage sites / cleavage profile,"human topoisomerase I; 117-bp DNA restriction fragment 3' end-labeled, sequencing-type polyacrylamide gels, listed as LAM-D",T^↓G or C^↓G dinucleotides; also recorded: additional cleavage site at C^↓G73
same,efficiency of topoisomerase I-mediated DNA cleavage at sites T↓G48 and T↓G81,human topoisomerase I; compared with CPT,less efficient than CPT
same,inhibition of cell division,fertilised sea urchin,inhibition of cell division
same,GI50,"H-MEC-1; GI=growth inhibition, read-out: GI50 H-MEC-1",113 nM
same,IC (TGI),"H-MEC-1; total growth inhibition (cytostatic effect), read-out: TGI H-MEC-1",3140 nM
same,GI50,"SKOV-3; SK-OV-3, SKOV-3, GI=growth inhibition, read-out: GI50 SKOV-3",53.7 nM
same,IC (TGI),"SKOV-3; SK-OV-3, SKOV-3, total growth inhibition (cytostatic effect), read-out: TGI SKOV-3",240 nM
